{"source": "patent US20110294732A1", "about": "“ERYTHROPOLETIN COMPLEMENTATION OR REPLACEMENT” (Universite De Strasbourg, priority 2007, published 2011)", "key": {"[1]": {"test_system": "whole blood", "test": "In vitro P50 of whole blood after incubation with effector, mouse", "type": "cell-based", "method": "(§1) For the in vitro experiments, ITPP was dissolved in deionized water, pH was adjusted to pH 7 and, for incubation with whole blood, the osmolarity of the ITPP solutions was adjusted with glucose to 270-297 mOsM. Mixtures of hemoglobin and ITPP were measured with a HEMOX analyzer (PD Marketing, London) immediately after mixing. Red blood cells were incubated with ITPP for 1 hour at 37° C. Following incubation, the cells were washed 3 times with Bis-Tris-buffer (pH=7.0) and then used for P50 measurement.\n(§2) ITPP was tested along with a cholesteroyl derivative (here designated as kf96) (both at 60 mM) as effectors for P50 shifts in whole blood of three species: human, mouse and pig. As usual, pHs for the compound-solutions were adjusted to ca. 7.0, osmolarities for both solutions were determined (325-373 mOsM) prior to treatment with the effectors, and whole blood volumes at 1:1 ratios were incubated."}, "[2]": {"test_system": "whole blood", "test": "In vitro P50 of whole blood after incubation with effector, pig", "type": "cell-based", "conditions": "60 mM", "method": "as §1, §2"}, "[3]": {"test": "Blood counts of mice after oral ingestion", "type": "in vivo", "excerpt": "Blood from mice that ingested ITPP or IHP in water (for 4 days) or water only was collected on day 0, 7 and 11, in order to assess any differences in the blood count (and the amount of erythropoietin in the sera) of treated and control mice. […] The amount of blood from the other mice was not sufficient to determine the blood count."}, "[4]": {"test": "Tolerability of oral treatment in mice", "type": "in vivo, C57BL/6 mice", "conditions": "drinking over 4 days", "method": "Twelve C57BL/6 mice drank ITPP over 4 days (about 25 ml/24 hrs). Seven Control mice drank either pure water (three mice), or a solution of IHP (inositol hexaphosphate without the internal pyrophosphate rings) at the same concentration and pH as ITPP (4 mice). […] Blood was collected from the tail vein of the 12 C57BL/6 mice on day 0 (before treatment started), 1, 2, 4, 6, 7, 8, 10, 11 and 12, in order to measure P50 values. […] Oral application of ITPP caused significant right shifts of P50 (up to 31%) in mice."}, "[5]": {"test_system": "porcine RBCs", "test": "P50 shift of porcine RBCs after intravenous injection", "type": "in vivo, piglet", "conditions": "intravenous 1 g ITPP/kg body weight", "method": "An in vivo experiment was performed on one 8 week-old normal piglet (body weight: 17 kg). The piglet was anesthesized with 5% Isoflurane, 0.7 L/min N2O and 2.0 L/min O2 for 20-30 minutes, when ITPP was injected, or blood was taken from the ear vein, respectively. The compound injected intravenous at a concentration of 27 g ITPP/100 ml water (volume injected: 63 ml, pH 6.5, containing 17 g ITPP=1 g/l kg body weight) was not harmful to the animal, when injected into the piglet's ear vein over at least 10 minutes.\nIntravenous injection of 1 g ITPP/kg body weight caused a significant right shift of the P50-value (up to 20%) in porcine RBCs. An almost saturated ITPP solution, pH 6.7, was injected intravenously into two piglets (both of ca. 18 kg body weight) (27 g ITPP/100 ml=1.5 g/kg body weight) over 20 minutes."}, "[6]": {"test": "Blood counts of piglets after intravenous injection", "type": "in vivo", "conditions": "iv 1 g/kg", "excerpt": "Blood from 2 piglets that received ITPP (1 g/kg body weight) was collected before injection, 2 hrs after, and daily over a period of 14 days after injection, in order to assess any differences in the blood counts of treated and non-treated piglets.\nBlood was taken from the heart of the dead animals for determination of blood counts as well as the amount of sodium, potassium and calcium in the sera. All numbers of blood cells (hematocrit, white blood cells etc.) were halved. The amount of potassium and calcium was normal, while sodium was doubled (before injection: 120-140 mmol/L; after injection: 245 mmol/L). Apparently, the large amount of sodium in that form of ITPP (6 Na^+/molecule) caused the death of the animals. It appears that up to 1 g ITPP per kg body weight can be injected intravenously, (if injected slowly) without harmful effects for the animals. […] A second piglet was also injected with ITPP at the 1 g/kg concentration, after 2 piglets had died after iv injection of 1.2 g ITPP (or even more) per kg body weight. […] Starting with day 3 after injection of the allosteric effector, the number of reticulocytes increased by about 3% for a period of 14 days."}, "[7]": {"test_system": "circulating RBCs", "test": "P50 shift of circulating RBCs after ip injection", "type": "in vivo, C57B1/6 mice", "conditions": "for P50 Shift %, 2 h, Mean +/- SD / P50 Shift %, 24 h, Mean +/- SD / P50 Shift %, 2 h / P50 Shift %, 24 h: ip; for P50 Shift %, 2 h, Mean +/- SD / P50 Shift %, 24 h, Mean +/- SD: 5 animals; for P50 Shift %, 2 h / P50 Shift %, 24 h: single animal", "method": "Blood from C57B1/6 mice collected 2 hrs and 1 day after injection of 45, 60, 120 and 150 mM solutions of ITPP was measured for P50-shifts as reported. […] No animal died or seemed to suffer from the compound."}, "[8]": {"test": "Blood counts of mice after oral ingestion", "type": "in vivo", "conditions": "single mouse, oral in water for 4 days; day 0 count 8.9-11.8"}}, "note": "Values joined by “and” are separate entries in the source; they are usually repeats but may differ in a detail not shown here. Equal values may be shown once. “Also recorded” adds a separate entry of the source.", "data": [{"smiles": "O=P1(O)OC2C3OP(=O)(O)OP(=O)(O)OC3C3OP(=O)(O)OP(=O)(O)OC3C2OP(=O)(O)O1", "note": "(stereo not drawn) [ITPP, inositol-tripyrophosphate]", "values": [{"measurement": "P50 increase, % (ITPP)", "setting": "[1]; mouse whole blood, 60 mM", "value": 29, "unit": "%"}, {"measurement": "P50 mm Hg effector ITPP", "setting": "[1]; mouse whole blood, 60 mM, control 36.7", "value": 47.4, "unit": "mm Hg"}, {"measurement": "shift of the P50 value to higher PO2", "setting": "[1]; murine whole blood", "value": "up to 40%"}, {"measurement": "P50 increase, % (ITPP)", "setting": "[2]; pig whole blood", "value": 40, "unit": "%"}, {"measurement": "P50 mm Hg effector ITPP", "setting": "[2]; pig whole blood, control 32.2", "value": 45.2, "unit": "mm Hg"}, {"measurement": "right shift in the Hb-O2 dissociation curve, strongest shift", "setting": "[2]; summary over human, pig and mouse whole blood", "value": "up to 40%"}, {"measurement": "time until the basal value of the RBC count is restored", "setting": "[3]; after ingestion, once ΔP50 becomes 0%", "value": 12, "unit": "days"}, {"measurement": "number of RBCs", "setting": "[3]; oral ingestion for 4 days", "value": "reduced significantly"}, {"measurement": "number of white blood cells versus other groups", "setting": "[3]; oral ingestion for 4 days", "value": "no major differences"}, {"measurement": "RBC × 10^6/mm^3 (day 7)", "setting": "[3]; single mouse, oral in water for 4 days, day 7, day 0 count 8.9-11.8", "value": "6.60 10^6/mm^3 and 5.73 10^6/mm^3 and 6.35 10^6/mm^3 and 5.64 10^6/mm^3 and 5.45 10^6/mm^3 and 8.76 10^6/mm^3 and 7.70 10^6/mm^3 and 6.54 10^6/mm^3 (2×)"}, {"measurement": "tolerability of oral treatment", "setting": "[4]", "value": "No C57BL/6 mouse seemed to suffer"}, {"measurement": "right shift of the P50-value", "setting": "[5]", "value": "up to 20%"}, {"measurement": "number of other cells such as white blood cells", "setting": "[6]", "value": "No major differences"}, {"measurement": "reticulocytes, increasing numbers", "setting": "[6]; 5-14 days after injection, day 14", "value": "up to 3.0%"}, {"measurement": "reticulocyte population after decrease", "setting": "[6]; first 3 days (24 to 72 hrs) after injection, from 1.4% / 1.5%", "value": 0.5, "unit": "%"}, {"measurement": "hematocrit and number of RBCs", "setting": "[6]; first days after injection", "value": "slight decrease; also recorded: decrease in hematocrit was observed"}, {"measurement": "pathological changes of the blood counts", "setting": "[6]; injected slowly", "value": "did not show any pathological changes"}, {"measurement": "increase of the number of reticulocytes", "setting": "[6]; starting with day 3, for a period of 14 days", "value": "about 3%"}, {"measurement": "time at which the P50 shift appears after inoculation", "setting": "[7]; ip inoculation", "value": 2, "unit": "h"}, {"measurement": "P50 Shift %, 2 h, Mean +/- SD", "setting": "[7]; 45 mM", "value": "11.8 +/− 1.16%"}, {"measurement": "P50 Shift %, 24 h, Mean +/- SD", "setting": "[7]; 45 mM", "value": "13.6 +/− 1.02%"}, {"measurement": "P50 Shift %, 2 h", "setting": "[7]; 45 mM", "value": "10% and 13% (2×) and 12% and 11%"}, {"measurement": "P50 Shift %, 24 h", "setting": "[7]; 45 mM", "value": 8, "unit": "%"}, {"measurement": "P50 Shift %, 2 h, Mean +/- SD", "setting": "[7]; 60 mM", "value": "16.9 +/− 3.48%"}, {"measurement": "P50 Shift %, 24 h, Mean +/- SD", "setting": "[7]; 60 mM", "value": "17.2 +/− 2.1%"}, {"measurement": "P50 Shift %, 2 h", "setting": "[7]; 60 mM", "value": "12% and 14% and 17% and 21% and 20.5%"}, {"measurement": "P50 Shift %, 24 h", "setting": "[7]; 60 mM", "value": "14% and 16% and 17% and 20% and 19%"}, {"measurement": "P50 Shift %, 2 h, Mean +/- SD", "setting": "[7]; 120 mM", "value": "26.0 +/− 2.28%"}, {"measurement": "P50 Shift %, 24 h, Mean +/- SD", "setting": "[7]; 120 mM", "value": "24.8 +/− 2.7%"}, {"measurement": "P50 Shift %, 2 h", "setting": "[7]; 120 mM", "value": "28% and 29% and 24% and 26% and 23%"}, {"measurement": "P50 Shift %, 24 h", "setting": "[7]; 120 mM", "value": "28% (2×) and 22% (2×) and 24%"}, {"measurement": "P50 Shift %, 2 h, Mean +/- SD", "setting": "[7]; 150 mM", "value": "27.0 +/− 1.78%"}, {"measurement": "P50 Shift %, 24 h, Mean +/- SD", "setting": "[7]; 150 mM", "value": "25.8 +/− 2.78%"}, {"measurement": "P50 Shift %, 2 h", "setting": "[7]; 150 mM", "value": "26% (2×) and 28% and 30% and 25%"}, {"measurement": "P50 Shift %, 24 h", "setting": "[7]; 150 mM", "value": "25% and 26% and 31% and 24% and 23%"}, {"measurement": "RBC × 10^6/mm^3", "setting": "[8]", "value": "9.35 10^6/mm^3 and 8.60 10^6/mm^3 and 8.95 10^6/mm^3 (2×) and 8.88 10^6/mm^3 and 8.70 10^6/mm^3 and 8.73 10^6/mm^3 and 7.65 10^6/mm^3 and 7.80 10^6/mm^3"}]}]}
